Test results reported in patent US20100048462A1, “TRUNCATED PTH PEPTIDES WITH A CYCLIC CONFORMATION” (Zealand Pharma A/S, priority 2006, published 2010).
Bridge positions count the residues as written; N and C are the ends. Square brackets hold non-standard residues; d marks the D form. Peptide text beside a SMILES is read from it. hArg = N=C(N)NCCCC[C@H](N)C(=O)O; Nle = CCCC[C@H](N)C(=O)O; Ac5c = NC1(C(=O)O)CCCC1; Dap = NC[C@H](N)C(=O)O; Aib = CC(C)(N)C(=O)O

Experiments:
CYP2D6 [1] = molecular target: T1, CYP2D6 (Homo sapiens, UniProt P10635); experiment: cell-based or functional assay
T1 sequence (P10635 whole entry): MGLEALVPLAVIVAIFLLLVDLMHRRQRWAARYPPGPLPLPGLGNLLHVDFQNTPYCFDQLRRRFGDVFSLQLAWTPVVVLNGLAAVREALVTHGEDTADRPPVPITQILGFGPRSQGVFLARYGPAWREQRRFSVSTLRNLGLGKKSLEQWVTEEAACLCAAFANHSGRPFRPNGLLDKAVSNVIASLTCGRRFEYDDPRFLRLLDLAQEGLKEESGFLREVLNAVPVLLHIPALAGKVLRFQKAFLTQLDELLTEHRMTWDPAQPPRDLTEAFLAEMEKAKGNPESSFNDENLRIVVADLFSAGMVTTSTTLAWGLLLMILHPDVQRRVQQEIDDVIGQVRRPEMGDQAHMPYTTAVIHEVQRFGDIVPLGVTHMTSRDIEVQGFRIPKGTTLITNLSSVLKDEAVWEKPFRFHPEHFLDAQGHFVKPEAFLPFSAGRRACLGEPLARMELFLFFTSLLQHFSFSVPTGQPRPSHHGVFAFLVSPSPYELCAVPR

Saos-2 PTH1R [2] = molecular target: Saos-2 PTH1R (UniProt Q03431); experiment: cell-based or functional assay
Saos-2 PTH1R [3] = molecular target: T2, Saos-2 PTH1R (Homo sapiens, UniProt Q03431); experiment: cAMP-efficacy assay in Saos-2 cells; assay type: cell-based; conditions: for potency compared to linear / non-stabilized counterparts, in words / EC50: cAMP; for EC50: 100 μM IBMX, 37° C. 15 min, suffix of label = salt tested; for Emax ± SEM: relative effect to the control (SEQ ID NO: 32)
T2 construct: endogenous in cells; host or cells: Saos-2
T2 sequence (Q03431 27-593): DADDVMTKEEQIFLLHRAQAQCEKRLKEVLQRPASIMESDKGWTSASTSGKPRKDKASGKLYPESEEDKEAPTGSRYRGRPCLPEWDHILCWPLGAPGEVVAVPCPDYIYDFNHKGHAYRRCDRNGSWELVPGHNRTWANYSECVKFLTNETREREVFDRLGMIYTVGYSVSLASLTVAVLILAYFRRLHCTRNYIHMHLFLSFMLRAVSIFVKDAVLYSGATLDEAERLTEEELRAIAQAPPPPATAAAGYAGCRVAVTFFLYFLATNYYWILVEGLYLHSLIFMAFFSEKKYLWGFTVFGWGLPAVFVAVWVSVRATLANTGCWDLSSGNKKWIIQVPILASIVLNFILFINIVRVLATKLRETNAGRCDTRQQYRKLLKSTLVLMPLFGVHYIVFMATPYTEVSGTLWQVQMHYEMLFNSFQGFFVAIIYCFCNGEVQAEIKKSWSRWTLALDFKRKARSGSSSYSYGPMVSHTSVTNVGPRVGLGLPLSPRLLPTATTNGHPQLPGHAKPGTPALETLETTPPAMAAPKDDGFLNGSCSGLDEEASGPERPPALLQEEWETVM
Procedure, shortened: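 Saos-2 cells, grown two days after seeding at 50,000 cells/well, were exposed to peptide for 15 min at 37 °C in Tyrode's buffer with 0.1% BSA and 100 μM IBMX. After stopping with cold HCl, cAMP was measured by radioimmunoassay FlashPlate. EC50, pEC50, Hill slope and Emax came from a four-parameter sigmoidal fit.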

CYP2D6 [4] = molecular target: T1, CYP2D6; experiment: CYP2D6 inhibition in pooled human liver microsomes; assay type: in vitro ADME; parameters: Pooled human liver microsomes (HLM, final concentration 0.05 mg protein/mL); tissue BD Biosciences 452161; host or cells: pooled human liver microsomes; conditions: 10 μM compound, dextrorphan formation rate
Procedure: Stock solutions of the test compounds (1 mM) were prepared in 50% isopropanol or 20% DMSO. Pooled human liver microsomes (HLM, final concentration 0.05 mg protein/mL) were mixed with phosphate buffer (0.1 M potassium phosphate, pH 7.4), CYP2D6 substrate (dextrometrorphan, 5 μM final concentration) and test compound (10 μM), quinidine (0.5 μM) or vehicle (0.2% DMSO or 0.5% isopropanol). The mixture was preincubated for 5 min at 37° C. prior to initiation of the reaction addition of a NADPH regenerating mixture (Final concentration: 1.25 mM NADP^+, 3.3 mM Glucose-6-phosphate, 3.3 mM MgCL2 and 0.4 U/mL glucose-6-phosphat dehydrogenase). After 5 minutes the reaction was stopped by addition of 0.25 volume stop reagent (94% acetonitrile, 6% acetic acid). Each experiment was performed in duplicate or triplicate.
The quantification of CYP2D6 product (dextrorphan) was performed by LC/MS/MS. After centrifugation for 5 min at 10.000 g, 40 μL of the supernatant was injected onto a C8 RP-HPLC column (XterraMS, C8, […], 50×2.1 mm). Dextrorphan was eluted by a linear gradient from 0 to 90% acetonitrile in 0.1% formic acid over 4 min using a flow rate of 0.15 ml/min. The concentration of dextrorphan in the reaction mixture was estimated from the peak area of the MS/MS transition (m/z 258.1>199) using an external calibration curve (Table 8).
The CYP2D6 activity in HLM was calculated as the metabolite formation rate: […]
Where, v is the formation rate, [metabolite] is the detected concentration of dextrorphan (pmol/mL) at the time (t, min) and [protein] is the protein concentration (mg/mL) in the reaction mixture. The influence of the test compounds on the CYP2D6 activity was calculated as % of the activity measured when incubated with the vehicle. The effect of CYP2D6 inhibitor (quinidine) was included as inhibition control within each batch analysis. A reduction in CYP2D6 activity to less than 70% of the vehicle control was considered significant.

## H-Ac5c-Val-Aib-Glu-Ile-Glu-Leu-Met-His-Gln-Har-Ala-Lys( )-Trp-Leu-Asn-Asp( )-NH2 (peptide)
CYP2D6 [1]
  CYP2D6 activity (% of vehicle), dextrorphan formation rate in human liver microsomes, 10 µM peptide: 89 % of vehicle
Saos-2 PTH1R [2]
  Emax, cAMP efficacy assay in Saos-2 cells (18T, trifluoroacetate salt) (relative to control (SEQ ID NO: 32)): 1.24
  pEC50, cAMP efficacy assay in Saos-2 cells (18T, trifluoroacetate salt): 7.29 -log(M)

## H-Ac5c-Val-Aib-Glu-Ile-Gln-Leu-Met-His-Glu-Har-Ala-Lys( )-Trp-Leu-Asn-Asp( )-NH2 (peptide)
CYP2D6 [1]
  CYP2D6 activity (% of vehicle), dextrorphan formation rate in human liver microsomes, 10 µM peptide: 83 % of vehicle
Saos-2 PTH1R [2]
  Emax, cAMP efficacy assay in Saos-2 cells (24T, trifluoroacetate salt) (relative to control (SEQ ID NO: 32)): 1.4
  pEC50, cAMP efficacy assay in Saos-2 cells (24T, trifluoroacetate salt): 6.9 -log(M)

## CC[C@H](C)[C@H](NC(=O)[C@H](CCC(=O)O)NC(=O)C(C)(C)NC(=O)[C@@H](NC(=O)C1(N)CCCC1)C(C)C)C(=O)N[C@@H](CCC(N)=O)C(=O)N[C@@H](CC(C)C)C(=O)N[C@@H](CCSC)C(=O)N[C@@H](Cc1c[nH]cn1)C(=O)N[C@@H](CCC(N)=O)C(=O)N[C@@H](CCCCNC(=N)N)C(=O)N[C@@H](C)C(=O)N[C@H]1CCCCNC(=O)C[C@@H](C(=O)O)NC(=O)[C@H](CC(N)=O)NC(=O)[C@H](CC(C)C)NC(=O)[C@H](Cc2c[nH]c3ccccc23)NC1=O [SEQ ID NO: 4, H-Ac5c-Val-Aib-Glu-Ile-Gln-Leu-Met-His-Gln-Har-Ala-Lys( )-Trp-Leu-Asn-Asp( )-OH] (H-[Ac5c]V[Aib]EIQLMHQ[hArg]AKWLND-OH; lactam 13-17)
Saos-2 PTH1R [3]
  potency compared to linear / non-stabilized counterparts, in words: clearly higher potency
  EC50: 38 nM
  Emax ± SEM: 1.11 ± 0.03
Saos-2 PTH1R [3]; listed as 4
  potency compared to linear / non-stabilized counterparts, in words: increased potencies
Saos-2 PTH1R [3]; listed as SEQ ID NO:4
  potency compared to linear / non-stabilized counterparts, in words: higher potency
CYP2D6 [4]
  CYP2D6 activity (% of vehicle): 89 % of vehicle

## H-Ac5c-Val-Aib-Glu-Ile-Gln-Leu-Nle-His-Gln-Har-Ala-Lys( )-Trp-Leu-Asn-Asp( )-NH2 (peptide)
CYP2D6 [1]
  CYP2D6 activity (% of vehicle), dextrorphan formation rate in human liver microsomes, 10 µM peptide: 99 % of vehicle
Saos-2 PTH1R [2]
  Emax, cAMP efficacy assay in Saos-2 cells (20T, trifluoroacetate salt) (relative to control (SEQ ID NO: 32)): 0.97
  pEC50, cAMP efficacy assay in Saos-2 cells (20T, trifluoroacetate salt): 8.1 -log(M)

## CC[C@H](C)[C@H](NC(=O)[C@H](CCC(=O)O)NC(=O)C(C)(C)NC(=O)[C@@H](NC(=O)C1(N)CCCC1)C(C)C)C(=O)N[C@@H](CCC(N)=O)C(=O)N[C@@H](CC(C)C)C(=O)N[C@@H](CC(C)C)C(=O)N[C@@H](Cc1c[nH]cn1)C(=O)N[C@@H](CCC(N)=O)C(=O)N[C@@H](CCCCNC(=N)N)C(=O)N[C@@H](C)C(=O)N[C@H]1CNC(=O)C[C@@H](C(N)=O)NC(=O)[C@H](CC(N)=O)NC(=O)[C@H](CC(C)C)NC(=O)[C@H](Cc2c[nH]c3ccccc23)NC1=O [SEQ ID NO: 17, H-Ac5c-Val-Aib-Glu-Ile-Gln-Leu-Leu-His-Gln-Har-Ala-Dpr( )-Trp-Leu-Asn-Asp( )-NH2] (H-[Ac5c]V[Aib]EIQLLHQ[hArg]A[Dap]WLND-NH2; lactam 13-17)
Saos-2 PTH1R [3]
  EC50: 776 nM
  Emax ± SEM: 1.25 ± 0.05
CYP2D6 [4]
  CYP2D6 activity (% of vehicle): 101 % of vehicle

## H-Ac5c-Val-Aib-Glu-Ile-Gln-Leu-Met-His-Gln-Har-Ala-Glu( )-Trp-Leu-Asn-Lys( )-NH2 (peptide)
CYP2D6 [1]
  CYP2D6 activity (% of vehicle), dextrorphan formation rate in human liver microsomes, 10 µM peptide: 99 % of vehicle
Saos-2 PTH1R [2]
  Emax, cAMP efficacy assay in Saos-2 cells (8T, trifluoroacetate salt) (relative to control (SEQ ID NO: 32)): 1.07
  pEC50, cAMP efficacy assay in Saos-2 cells (8T, trifluoroacetate salt): 7.94 -log(M)

## H-Ser-Val-Ser-Glu-Ile-Gln-Leu-Met-His-Asn-Leu-Gly-Lys-His-Leu-Asn-Ser-NH2 (peptide)
CYP2D6 [1]
  CYP2D6 activity (% of vehicle), dextrorphan formation rate in human liver microsomes, 10 µM peptide: 41 % of vehicle

## H-Ser-Val-Ser-Glu-Ile-Gln-Leu-Met-His-Asn-Leu-Gly-Lys( )-His-Leu-Asn-Asp( )-NH2 (peptide)
CYP2D6 [1]
  CYP2D6 activity (% of vehicle), dextrorphan formation rate in human liver microsomes, 10 µM peptide: 79 % of vehicle

## CCCC[C@H](NC(=O)[C@H](CC(C)C)NC(=O)[C@H](CCC(N)=O)NC(=O)[C@@H](NC(=O)[C@H](CCC(=O)O)NC(=O)C(C)(C)NC(=O)[C@@H](NC(=O)C1(N)CCCC1)C(C)C)[C@@H](C)CC)C(=O)N[C@@H](Cc1c[nH]cn1)C(=O)N[C@@H](CCC(N)=O)C(=O)N[C@@H](CCCCNC(=N)N)C(=O)N[C@@H](C)C(=O)N[C@H]1CCCCNC(=O)C[C@@H](C(N)=O)NC(=O)[C@H](CC(N)=O)NC(=O)[C@H](CC(C)C)NC(=O)[C@H](Cc2c[nH]c3ccccc23)NC1=O [SEQ ID NO: 20, H-Ac5c-Val-Aib-Glu-Ile-Gln-Leu-Nle-His-Gln-Har-Ala-Lys( )-Trp-Leu-Asn-Asp( )-NH2] (H-[Ac5c]V[Aib]EIQL[Nle]HQ[hArg]AKWLND-NH2; lactam 13-17)
Saos-2 PTH1R [3]
  EC50: 7.94 nM
  Emax ± SEM: 0.97 ± 0.04
CYP2D6 [4]
  CYP2D6 activity (% of vehicle): 99 % of vehicle

## H-Ac5c-Val-Aib-Glu-Ile-Gln-Leu-Met-His-Gln-Har-Ala-Lys( )-Trp-Leu-Asn-Asp( )-OH (peptide)
CYP2D6 [1]
  CYP2D6 activity (% of vehicle), dextrorphan formation rate in human liver microsomes, 10 µM peptide: 89 % of vehicle
Saos-2 PTH1R [2]
  Emax, cAMP efficacy assay in Saos-2 cells (4T, trifluoroacetate salt) (relative to control (SEQ ID NO: 32)): 1.11
  pEC50, cAMP efficacy assay in Saos-2 cells (4T, trifluoroacetate salt): 7.42 -log(M)

## CC[C@H](C)[C@H](NC(=O)[C@H](CCC(=O)O)NC(=O)C(C)(C)NC(=O)[C@@H](NC(=O)C1(N)CCCC1)C(C)C)C(=O)N[C@@H](CCC(N)=O)C(=O)N[C@@H](CC(C)C)C(=O)N[C@@H](CCSC)C(=O)N[C@@H](Cc1c[nH]cn1)C(=O)N[C@@H](CCC(N)=O)C(=O)N[C@@H](CCCCNC(=N)N)C(=O)N[C@@H](C)C(=O)N[C@H]1CCC(=O)NCCCC[C@@H](C(N)=O)NC(=O)[C@H](CC(N)=O)NC(=O)[C@H](CC(C)C)NC(=O)[C@H](Cc2c[nH]c3ccccc23)NC1=O [SEQ ID NO: 8, H-Ac5c-Val-Aib-Glu-Ile-Gln-Leu-Met-His-Gln-Har-Ala-Glu( )-Trp-Leu-Asn-Lys( )-NH2] (H-[Ac5c]V[Aib]EIQLMHQ[hArg]AEWLNK-NH2; lactam 13-17)
Saos-2 PTH1R [3]
  EC50: 11.5 nM
  Emax ± SEM: 1.07 ± 0.02
CYP2D6 [4]
  CYP2D6 activity (% of vehicle): 99 % of vehicle

## CC[C@H](C)[C@H](NC(=O)[C@H](CCC(=O)O)NC(=O)C(C)(C)NC(=O)[C@@H](NC(=O)C1(N)CCCC1)C(C)C)C(=O)N[C@@H](CCC(N)=O)C(=O)N[C@@H](CC(C)C)C(=O)N[C@@H](CCSC)C(=O)N[C@@H](Cc1c[nH]cn1)C(=O)N[C@@H](CCC(N)=O)C(=O)N[C@@H](CCCCNC(=N)N)C(=O)N[C@@H](C)C(=O)N[C@H]1CCCCNC(=O)CC[C@@H](C(N)=O)NC(=O)[C@H](CC(N)=O)NC(=O)[C@H](CC(C)C)NC(=O)[C@H](Cc2c[nH]c3ccccc23)NC1=O [SEQ ID NO: 9, H-Ac5c-Val-Aib-Glu-Ile-Gln-Leu-Met-His-Gln-Har-Ala-Lys( )-Trp-Leu-Asn-Glu( )-NH2] (H-[Ac5c]V[Aib]EIQLMHQ[hArg]AKWLNE-NH2; lactam 13-17)
Saos-2 PTH1R [3]
  EC50: 14.1 nM
  Emax ± SEM: 1.03 ± 0.03
CYP2D6 [4]
  CYP2D6 activity (% of vehicle): 85 % of vehicle
